Experimental data from US8343983B2, “Substituted pyrazolo-pyrimidine compounds” (ArQule, Inc., priority 2009, dated 2013).
Read-outs that look alike come from different tables or passages of the source.

Tested on: cancer cells
Experiment: MTS assay: inhibition of cell growth (formazan absorbance at 492 nm after 72 hours with test compound)
Type: cell-based
Details: inhibition class
Method in brief: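 DMEM with 1% FBS; cells seeded at 3000/well and grown 18 h at 37 °C, then exposed to compound for 72 h and to MTS/PMS for 4 h. IC50 is the concentration giving a 50% absorbance drop; grades are % inhibition bands.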

[1] = Homo sapiens, DLD-1 cells, read-out: DLD-1, MTS 72 hours at 10 uM
[2] = Homo sapiens, KATO III cells, read-out: KATO III, MTS 72 hours at 10 uM
[3] = Homo sapiens, MDA-MB-231 cells, read-out: MDA-MB-231, MTS 72 hours at 10 uM
[4] = Homo sapiens, NCI-H1299 cells, read-out: NCI-H1299, MTS 72 hours at 10 uM
[5] = Homo sapiens, PC-3 cells, read-out: PC-3, MTS 72 hours at 10 uM
[6] = PACA-2 cells, read-out: PACA-2, MTS 72 hours at 10 uM

SMILES	inhibition at 10 µM [1] [%]	inhibition at 10 µM [2] [%]	inhibition at 10 µM [3] [%]	inhibition at 10 µM [4] [%]	inhibition at 10 µM [5] [%]	inhibition at 10 µM [6] [%]
c1ccc(N2CCc3n[nH]c4nc(NCCN5CCOCC5)nc2c34)cc1 [Compound 215, N-(2-morpholin-4-ylethyl)-6-phenyl-2,6,7,8-tetrahydro-1,2,3,5,6-pentaazaacenaphthylen-4-amine]	< 50	< 50	< 50	< 50	< 50	< 50
c1ccc(N2CCc3n[nH]c4nc(N5CCCC5)nc2c34)cc1 [Compound 216, 6-phenyl-4-pyrrolidin-1-yl-2,6,7,8-tetrahydro-1,2,3,5,6-pentaazaacenaphthylene]	< 50	< 50	< 50	< 50	< 50	50 to 79
c1ccc(CN2CCN(c3nc4c5c(n[nH]c5n3)CCN4c3ccccc3)CC2)cc1 [Compound 217, 4-(4-benzylpiperazin-1-yl)-6-phenyl-2,6,7,8-tetrahydro-1,2,3,5,6-pentaazaacenaphthylene]	< 50	< 50	< 50	< 50	< 50	< 50
c1ccc(N2CCc3n[nH]c4nc(N5CCOCC5)nc2c34)cc1 [Compound 218, 4-morpholin-4-yl-6-phenyl-2,6,7,8-tetrahydro-1,2,3,5,6-pentaazaacenaphthylene]	< 50	< 50	< 50	< 50	< 50	< 50
CN1CCC(Nc2nc3c4c(n[nH]c4n2)CCN3c2ccccc2)CC1 [Compound 219, N-(1-methylpiperidin-4-yl)-6-phenyl-2,6,7,8-tetrahydro-1,2,3,5,6-pentaazaacenaphthylen-4-amine]	> 79	> 79	> 79	50 to 79	> 79	> 79
c1ccc(CCNc2nc3c4c(n[nH]c4n2)CCN3c2ccccc2)cc1 [Compound 220, 6-phenyl-N-(2-phenylethyl)-2,6,7,8-tetrahydro-1,2,3,5,6-pentaazaacenaphthylen-4-amine]	> 79	> 79	50 to 79	50 to 79	50 to 79	> 79
Fc1ccc(CCNc2nc3c4c(n[nH]c4n2)CCN3c2ccccc2)cc1 [Compound 221, N-[2-(4-fluorophenyl)ethyl]-6-phenyl-2,6,7,8-tetrahydro-1,2,3,5,6-pentaazaacenaphthylen-4-amine]	< 50	< 50	< 50	< 50	< 50	< 50
CCOC(=O)C1CN(Cc2ccccc2)c2nc(SC)nc3[nH]nc1c23 (stereo not drawn) [Compound 222, ethyl 6-benzyl-4-(methylsulfanyl)-2,6,7,8-tetrahydro-1,2,3,5,6-pentaazaacenaphthylene-8-carboxylate]	< 50	< 50	< 50	< 50	< 50	< 50
CN(C)CCCNc1nc2c3c(n[nH]c3n1)C(C(=O)NCc1ccccc1)CN2Cc1ccccc1 (stereo not drawn) [Compound 223, N,6-dibenzyl-4-{[3-(dimethylamino)propyl]ami-no}-2,6,7,8-tetrahydro-1,2,3,5,6-pentaazaacenaphthylene-8-carboxamide]	< 50	< 50	< 50	< 50	< 50	< 50
COc1cccc(CCNc2nc3c4c(n[nH]c4n2)C(C(=O)NCc2ccccc2)CN3Cc2ccccc2)c1 (stereo not drawn) [Compound 224, N,6-dibenzyl-4-{[2-(3-methoxyphenyl)ethyl]amino}-2,6,7,8-tetrahydro-1,2,3,5,6-pentaazaacenaphthylene-8-carboxamide]	< 50	< 50	< 50	< 50	< 50	< 50
O=C(NCc1ccccc1)C1CN(Cc2ccccc2)c2nc(NCc3ccco3)nc3[nH]nc1c23 (stereo not drawn) [Compound 225, N,6-dibenzyl-4-[(furan-2-ylmethyl)amino]-2,6,7,8-tetrahydro-1,2,3,5,6-pentaazaacenaphthylene-8-carboxamide]	< 50	< 50	< 50	< 50	< 50	< 50
O=C(NCc1ccccc1)C1CN(Cc2ccccc2)c2nc(NCCc3c[nH]c4ccccc34)nc3[nH]nc1c23 (stereo not drawn) [Compound 226, N,6-dibenzyl-4-{[2-(1H-indol-3-yl)ethyl]amino}-2,6,7,8-tetrahydro-1,2,3,5,6-pentaazaacenaphthylene-8-carboxamide]	> 79	> 79	> 79	> 79	> 79	> 79
O=C(NCc1ccccc1)C1CN(Cc2ccccc2)c2nc(N3CCCCC3)nc3[nH]nc1c23 (stereo not drawn) [Compound 227, N,6-dibenzyl-4-piperidin-1-yl-2,6,7,8-tetrahydro-1,2,3,5,6-pentaazaacenaphthylene-8-carboxamide]	> 79	50 to 79	> 79	> 79	> 79	< 50
CN1CCN(c2nc3c4c(n[nH]c4n2)C(C(=O)NCc2ccccc2)CN3Cc2ccccc2)CC1 (stereo not drawn) [Compound 228, N,6-dibenzyl-4-(4-methylpiperazin-1-yl)-2,6,7,8-tetrahydro-1,2,3,5,6-pentaazaacenaphthylene-8-carboxamide]	< 50	< 50	< 50	< 50	< 50	< 50
O=C(NCc1ccccc1)C1CN(Cc2ccccc2)c2nc(NCc3ccccc3Cl)nc3[nH]nc1c23 (stereo not drawn) [Compound 229, N,6-dibenzyl-4-[(2-chlorobenzyl)amino]-2,6,7,8-tetrahydro-1,2,3,5,6-pentaazaacenaphthylene-8-carboxamide]	< 50	< 50	< 50	< 50	50 to 79	< 50
O=C(NCc1ccccc1)C1CN(Cc2ccccc2)c2nc(NCc3ccc(Oc4ccccc4)cc3)nc3[nH]nc1c23 (stereo not drawn) [Compound 230, N,6-dibenzyl-4-[(4-phenoxybenzyl)amino]-2,6,7,8-tetrahydro-1,2,3,5,6-pentaazaacenaphthylene-8-carboxamide]	> 79	50 to 79	< 50	50 to 79	50 to 79	< 50
O=C(NCc1ccccc1)C1CN(Cc2ccccc2)c2nc(N3CCN(c4ccccc4)CC3)nc3[nH]nc1c23 (stereo not drawn) [Compound 231, N,6-dibenzyl-4-(4-phenylpiperazin-1-yl)-2,6,7,8-tetrahydro-1,2,3,5,6-pentaazaacenaphthylene-8-carboxamide]	50 to 79	50 to 79	> 79	> 79	50 to 79	50 to 79
O=C(NCc1ccccc1)C1CN(Cc2ccccc2)c2nc(NC3CCC3)nc3[nH]nc1c23 (stereo not drawn) [Compound 232, N,6-dibenzyl-4-(cyclobutylamino)-2,6,7,8-tetrahydro-1,2,3,5,6-pentaazaacenaphthylene-8-carboxamide]	< 50	< 50	< 50	< 50	< 50	< 50
Cc1ccccc1CNC(=O)C1CN(Cc2ccccc2)c2nc(NCc3ccccc3)nc3[nH]nc1c23 (stereo not drawn) [Compound 233, 6-benzyl-4-(benzylamino)-N-(2-methylbenzyl)-2,6,7,8-tetrahydro-1,2,3,5,6-pentaazaacenaphthylene-8-carboxamide]	> 79	50 to 79	> 79	> 79	> 79	< 50
O=C(NCc1ccc2c(c1)OCO2)C1CN(Cc2ccccc2)c2nc(NCc3ccccc3)nc3[nH]nc1c23 (stereo not drawn) [Compound 234, N-(1,3-benzodioxol-5-ylmethyl)-6-benzyl-4-(benzylamino)-2,6,7,8-tetrahydro-1,2,3,5,6-pentaazaacenaphthylene-8-carboxamide]	> 79	> 79	> 79	> 79	> 79	50 to 79
O=C(NCCc1ccccc1)C1CN(Cc2ccccc2)c2nc(NCc3ccccc3)nc3[nH]nc1c23 (stereo not drawn) [Compound 235, 6-benzyl-4-(benzylamino)-N-(2-phenylethyl)-2,6,7,8-tetrahydro-1,2,3,5,6-pentaazaacenaphthylene-8-carboxamide]	> 79	> 79	> 79	> 79	> 79	> 79
